Measurements reported in the METLIN SMRT retention time set (Domingo-Almenara et al. 2019).

Assay: gradient 5% acetonitrile 3 min, to 50% in 2 min, to 85% in 15 min, held 3 min, 100 µL/min
Conditions: column: Zorbax Extend-C18 2.1 x 50 mm; eluents: water / acetonitrile, 0.1% formic acid
Procedure, shortened: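 Pure standards were analyzed in mixtures of ~100 molecules using HPLC coupled to a quadrupole time-of-flight mass spectrometer, in both positive and negative ionization mode. Separation used a Zorbax Extend-C18 column (2.1 × 50 mm, 1.8 μm) at 100 μL/min, with water and acetonitrile each containing 0.1% formic acid. Dead and dwell volumes were 40 μL and 900 μL, and data were collected over 3 months. Retention time was read from computationally picked adduct peaks, each inspected manually.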

SMILES	RP-LC retention time [s]
O=C(Cc1ccc(Cl)cc1)N1CC(n2cnnc2C2CC2)C1	649
Cc1ccccc1NC(=O)NCCc1cn(CC(C)C)c2ncccc12	808
Cc1ccc2c(=O)c(C(=O)N3CCCC3)cn(CC(=O)Nc3ccc(F)cc3F)c2n1	692
COc1ccccc1-c1nnc(NC(=O)COc2ccccc2)o1	707
COCCOCc1nc(C2CCCN2S(=O)(=O)Cc2ccccc2)no1 (stereo not given)	748
COCCn1c(SCc2c(F)cccc2Cl)nnc1-c1cn(C)nc1OC	683
CSc1ccc(CNC(=O)CCNc2cnc3cnccn23)cc1	588
Cc1ccc(C)c(CNC(=O)c2ccc(-c3nc4cccnc4n3C3CCCCC3)cc2)c1	1120
Ic1ccccc1CNC1C2CCN(CC2)C1C(c1ccccc1)c1ccccc1 (stereo not given)	982
Cc1ccc(-c2nc(Cn3nnc(C(=O)NCc4ccc(C)o4)c3C)c(C)o2)cc1	1010
Cc1ccc2[nH]cc(CCN3CC(C(=O)N4CCCCCC4)CC3=O)c2c1 (stereo not given)	800
COc1ccc(CCNC(=O)c2ccc(-n3nc(C)cc3C)nc2)cc1OC	758
COC(=O)C1=C(C)NC2=C(C(=O)c3ccccc32)C1c1ccc(OC)cc1OC (stereo not given)	856
Cc1cc(C)n(CCNC(=O)CSc2ccc(F)cc2)n1	675
COc1ccc(Nc2cc(Cl)ccc2C(=O)O)cn1	978
COc1cc2nc(C(=O)N3CCCCC3)cc(Nc3ccc(F)c(F)c3)c2cc1OC	720
O=C(N[C@H]1C[C@@H]2C[C@H]1CN2S(=O)(=O)c1cccc2cccnc12)c1ccccc1	792
O=C(CSc1ccc(N2CCCC(C(=O)NC3CC3)C2)nn1)Nc1ccccc1Br (stereo not given)	664
COc1ccc(-c2cc3nn(CC(=O)NCc4ccc(F)cc4)c(=O)n3c(C)n2)cc1	880
CCc1nc(OCC(=O)Nc2ccc(Cl)c(Cl)c2)c2ccccc2n1	958
CN(C)CCNC(=O)c1ccc(CS(=O)(=O)c2c(Cl)cccc2Cl)o1	595
CCc1ccc(NC(=O)C2CCN(C(=O)c3ncn4c3COC(c3ccccc3)C4)CC2)cc1 (stereo not given)	846
COc1ccccc1-c1nnc(NC(=O)C2CC(=O)N(c3ccc(F)cc3)C2)o1 (stereo not given)	652

SMILES	RP-LC retention time [s]
Cn1ncc(N2CCCC(C(=O)Nc3ccc4c(c3)CCC4)C2)cc1=O (stereo not given)	786
CCOc1ccc(C(=O)N2CCN(c3cc(CC)n4cnnc4n3)CC2)cc1	742
CCCn1cnc2cc(CNS(=O)(=O)c3ccc(F)cc3)ccc21	635
CC(C)c1noc(-c2ccc(-n3cnc(C(=O)N4CCc5ccccc5C4)c3)nc2)n1	1010
CC1=NOC(C)(CNS(=O)(=O)c2ccc(F)cc2)C1 (stereo not given)	728
CC(C)CCSc1nnc2c(S(=O)(=O)N3CCOCC3)cccn12	810
O=C(C1CCCO1)N1CCC(CCOc2ccccc2)CC1 (stereo not given)	844
CN(C(=O)C(=O)Nc1ccc2nc3n(c(=O)c2c1)CCCCC3)c1ccccc1F	746
O=C(c1ccc(Cl)cc1Cl)N1CCN(c2cc(-c3ccc(Cl)cc3)[nH]n2)CC1	981
COC(=O)c1c(NCc2ccc(F)cc2F)c2cc(F)ccc2[nH]c1=O	769
CNS(=O)(=O)c1cc(C(=O)Nc2cc(C)on2)oc1C	643
O=C(c1ccc(Br)o1)N1CCN(c2ccc(=O)n(-c3ccc(Cl)cc3)n2)CC1	878
O=C(c1cc(-c2ccco2)on1)N1CCC(Oc2nc3ccccc3s2)CC1	1030
COc1ccc(N2CCN(C(=O)C3CCN(S(=O)(=O)c4cn(C)cn4)CC3)CC2)cc1	628
Cc1cc(NC(=O)C2CCCN(c3cnc4nccnc4c3)C2)ccc1F (stereo not given)	769
CCCn1ccc2sc(C)c(C(=O)NCc3ccc(F)cc3F)c2c1=O	925
CCCn1cc(CCNS(=O)(=O)c2ccc(C)cc2C)c2cccnc21	924
CC1CC(=O)Nc2ccccc2N1C(=O)c1ccc(Cl)cc1 (stereo not given)	743
CC(C)(C)C(=O)Nc1ccc(N2CCN(CCC#N)CC2)cc1C(=O)O	611
Cc1noc(-c2nn(C)c3c2CN(C(=O)c2cc(F)ccc2F)CC3)n1	737
CCCc1cc(N2CCN(C(=O)c3ccsc3)CC2)nc2nnc(CC)n12	624
CCc1ccc(CNC(=O)C2CCCN(c3nc4c(s3)c(C)nn4-c3ccc(C)cc3)C2)cc1 (stereo not given)	1260
O=c1ccn(-c2cccc(F)c2)nc1-c1nc(-c2cccc(Br)c2)no1	995

SMILES	RP-LC retention time [s]
COC(=O)C1=CN(c2cccc(F)c2)c2ccc(F)cc2S1(=O)=O	838
COc1cccc(-c2nc3cnccn3c2NCCC(=O)NC2CCN(C)CC2)c1	554
CC(C)(C)CC(=O)Nc1cnc(-c2cccnc2)nc1	665
Cc1ccc(C(=O)N2CCC(n3cnnc3-c3ccccc3)C2)cn1 (stereo not given)	573
O=C(Cc1nnc2c(-c3nc(C4CC4)no3)cccn12)NC1CCCCC1	685
COc1ccc(Cl)cc1NC(=O)CSc1ccc2nnc(-c3cccs3)n2n1	766
O=C(C1CC(=O)N(C2CCCCC2)C1)N1CCCCCC1 (stereo not given)	763
Cc1cccc(-c2nnc(C)c(N3CCC(C)CC3)n2)c1	771
c1ccc(-c2nc3nccc(-c4ccccc4)n3n2)cc1	907
Cc1cc(C)cc(-n2ccn3c(CCCC(=O)N4CCN(c5ccccn5)CC4)nnc3c2=O)c1	616
CN(C)CCn1nnc2cc(-c3noc(-c4ccc(F)cc4)n3)ccc21	651
Cn1cc(CN2CCCC(COc3ccccc3C(=O)N3CCCC3)C2)c2ccccc21 (stereo not given)	695
CCC(C)NC(=O)N1CC(n2cc(C(=O)N(C)CCOC)nn2)C1 (stereo not given)	620
Cc1cc2nc(C(F)(F)F)c(=O)n(C(C)C(=O)NCCCN3CCCC3)c2cc1C (stereo not given)	714
O=C(Nc1cccc(Br)c1)N1CCC(n2cnnc2C2CC2)C1 (stereo not given)	668
COc1ccc(-c2nnc(-c3ccc(OC)c(S(=O)(=O)N4CCCC4)c3)o2)cc1OC	844
O=C(N[C@H]1C[C@@H]2C[C@H]1CN2C(=O)c1ccc2c(c1)OCO2)c1ccccc1	700
CCN1C(=O)c2cccnc2Sc2cc(NC(=O)c3sccc3C)ccc21	842
COc1ccccc1NC(=O)C1CCN(C(=O)C2Sc3ccccc3NC2=O)CC1 (stereo not given)	753
COc1ccccc1N1CCN(S(=O)(=O)c2cc(-c3cc(C(F)(F)F)on3)sc2C)CC1	1300
CCNC(=O)NC1CCN(c2ccc(C)cc2)C1=O (stereo not given)	671
CC(Oc1cc(O)c2c(=O)cc(-c3ccccc3)oc2c1)C(=O)c1ccccc1 (stereo not given)	1210
COc1cc(OC)cc(C(=O)N2CCCC2c2nc(-c3cccc(C(F)(F)F)c3)no2)c1 (stereo not given)	1120

SMILES	RP-LC retention time [s]
COCCNC(=O)Cn1nc(-c2ccc(Cl)cc2)c2c(C)onc2c1=O	749
CCN(CC)c1ccc(NC(=O)C2CCCN(S(=O)(=O)c3cn(CC)cn3)C2)c(C)c1 (stereo not given)	578
Cc1oc(C2CCN(C(=O)c3ccsc3)CC2)nc1C(=O)N1CCCCC1	745
Cc1ccc(NC(=O)C2CCN(S(=O)(=O)c3ccc4c(c3)sc(=O)n4C)CC2)cc1C	913
Cc1nc(OCC(=O)NCCN2CCCC2)c2c(-c3ccccc3)noc2n1	627
CCc1nc2cc(-c3noc(-c4n[nH]c5c4CCCC5)n3)ccc2o1	1000
CCOc1ccc2nc(NC(=O)Cc3csc4nc(-c5ccccc5)cn34)sc2c1	874
O=C(NCCC(c1ccccc1)c1ccccc1)c1cnc2sccn2c1=O	847
Cc1cccc(Nc2c(-c3ccccc3)nc3nc(C)cc(C)n23)c1	741
N#Cc1ccc(-n2cnc(C(=O)Nc3cccc(C(F)(F)F)c3)c2)cc1	889
CC1CCN(S(=O)(=O)c2ccc(-c3nnc(C4CC4)o3)o2)CC1	933
Cc1csc(-c2cc(S(=O)(=O)NC3CCCC3)c(C)n2C)n1	970
Cc1nn(C)cc1CN1CCCCC1CCn1cc(-c2ccccc2)nn1 (stereo not given)	564
COc1ccc(-c2nc(NC3CCCCC3)c3ccccc3n2)cc1	856
O=C(Cn1nc2c(cc1=O)CCCC2)NCCc1nc(-c2ccccc2)cs1	784
Cc1ccc(CNC(=O)N2CC(n3cc(COc4ccc(F)cc4)nn3)C2)cc1	821
COc1cccc(-n2c(N3CCCC(C(=O)Nc4ccc(F)cc4)C3)nc3ccsc3c2=O)c1 (stereo not given)	932
CCC(C)NC(=O)C1CCCN(C(=O)c2cc(-c3ccccn3)n[nH]2)C1 (stereo not given)	611
CCCn1ncc(N2CCC(C(=O)N3CCN(C(C)C)CC3)CC2)cc1=O	566
Cc1ccccc1NC(=O)C1CCCN1S(=O)(=O)c1cc2c(cc1C)NC(=O)CO2 (stereo not given)	763
CSc1cccc(NC(=O)N2CCC(N3CCN(Cc4ccccc4)C(=O)C3=O)CC2)c1	770
